Results published in patent publication US12527808B2, “Compounds useful to treat pain” (Amneal Pharmaceuticals LLC, priority 2019, dated 2026).

Legend:
Bradykinin B1 Receptor = target: T1, Bradykinin B1 Receptor (Homo sapiens, UniProt P46663); experiment: Radioligand binding assay for bradykinin B1 receptor
T1 construct: purchased; host or cells: transiently transfected CHO-K1 cells (membranes)
T1 sequence (P46663 1-353): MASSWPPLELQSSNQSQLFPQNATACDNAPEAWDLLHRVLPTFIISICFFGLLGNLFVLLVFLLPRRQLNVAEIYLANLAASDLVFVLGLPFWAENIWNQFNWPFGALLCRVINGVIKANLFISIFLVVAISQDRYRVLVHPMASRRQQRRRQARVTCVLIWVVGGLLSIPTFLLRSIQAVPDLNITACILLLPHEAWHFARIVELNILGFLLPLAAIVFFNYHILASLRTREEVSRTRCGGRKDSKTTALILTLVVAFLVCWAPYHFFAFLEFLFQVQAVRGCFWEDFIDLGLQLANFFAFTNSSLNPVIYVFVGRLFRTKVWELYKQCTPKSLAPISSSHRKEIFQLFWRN
Experimental: (§1) Example 10: Radioligand Binding Assay for Bradykinin B1 and B2 Receptor
(§2) Bradykinin receptor membrane (B1 & B2) was procured from commercial source. Competitive radioligand binding assay was done by filtration-based technique using membranes prepared from transiently transfected Chinese hamster ovary (CHO)—K1 cells. Briefly, different concentrations of Phenazopyridine (compound I-A) was added to 96 wells plate containing bradykinin membrane along with required controls. The assay plate was harvested onto a GF/B Unifier harvester plate and washed with cold wash buffer. Plate was dried in oven for 15 mins at 60° C. The membrane activity was analyzed based on the readout using MicroBeta from Perkin Elmer in Counts Per Minute (CPM). Percent inhibition of Bradykinin receptor activity was calculated at each concentration and summarized in the results.

Bradykinin B2 Receptor = target: T2, Bradykinin B2 Receptor (Homo sapiens, UniProt P30411); experiment: Radioligand binding assay for bradykinin B2 receptor
T2 construct: purchased; host or cells: transiently transfected CHO-K1 cells (membranes)
T2 sequence (P30411 1-391): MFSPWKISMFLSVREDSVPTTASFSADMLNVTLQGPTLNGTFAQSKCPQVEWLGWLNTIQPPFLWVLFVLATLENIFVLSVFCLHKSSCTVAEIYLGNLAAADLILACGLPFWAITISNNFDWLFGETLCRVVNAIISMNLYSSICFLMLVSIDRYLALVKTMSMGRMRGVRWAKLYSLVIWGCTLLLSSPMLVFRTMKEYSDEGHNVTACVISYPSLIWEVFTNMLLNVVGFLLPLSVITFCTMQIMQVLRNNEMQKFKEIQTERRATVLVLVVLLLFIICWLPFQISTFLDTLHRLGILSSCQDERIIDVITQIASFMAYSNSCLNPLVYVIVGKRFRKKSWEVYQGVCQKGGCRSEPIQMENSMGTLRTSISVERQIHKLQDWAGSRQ
Experimental: as §1, §2

`Nc1ccc(/N=N/c2ccccc2)c(N)n1` [Phenazopyridine] gave an inhibition at 1 µM (Bradykinin B1 Receptor; 1.00 μM) of 12%, an inhibition at 10.01 µM (Bradykinin B1 Receptor; 10.01 μM) of 49% and an inhibition at 100 µM (Bradykinin B1 Receptor; 100.00 μM) of 81%. The inhibition at 0.03 µM (Bradykinin B2 Receptor; 0.03 μM) was 6%, the inhibition at 0.1 µM (Bradykinin B2 Receptor; 0.10 μM) was 13% and the inhibition at 0.32 µM (Bradykinin B2 Receptor; 0.32 μM) was 10%. For the same molecule, the inhibition at 1 µM (Bradykinin B2 Receptor; 1.00 μM) was 37%, the inhibition at 3.17 µM (Bradykinin B2 Receptor; 3.17 μM) was 38% and the inhibition at 10.01 µM (Bradykinin B2 Receptor; 10.01 μM) was 59%. It also gave an inhibition at 31.65 µM (Bradykinin B2 Receptor; 31.65 μM) of 78% and an inhibition at 100 µM (Bradykinin B2 Receptor; 100.00 μM) of 98%.
